Reference: US20100144626A1, “Treatment of Multi-Drug Resistant Bacterial Infections” (priority 2006, published 2010)
In brackets after ≈: the same amount, converted by molar mass. Where two headings read alike, the source gives them in different places.

Key:
[1] = system: Acinetobacter Baumannii ATCC 19606; experiment: MIC, agar dilution (BSAC guidelines); assay type: cell-based
Procedure: (§1) In example experiments miconazole nitrate, was dissolved in methanol and econazole nitrate and clotrimazole were dissolved in DMSO and methanol respectively. Other solvents that may be used include caster oil, pyridine, DMSO and 0.9% saline. For IV administration agents may be solubilised in polyethoxylated caster oil, or cyclodextrins such as sulfobutylether7-βcyclodextrin or hydroxypropyl-β-cyclodextrin and lactic acid. Minimum inhibitory concentrations (MICs) of a range of clinical and control bacterial organisms were measured according to BSAC (British Society for Antimicrobial Chemotherapy) guidelines, described briefly as follows;
(§2) Preparation of Agar Plates and Broths
(§3) Stock solutions of each agent were prepared using the formula:
(§4) Where P=μg of active compound per mg (μg/mg) • V=volume required (mL) • C=final concentration of solution (mg/L) • W=weight of agent (mg) to be dissolved in volume V (mL)
(§5) Stock solutions were prepared at concentrations of 1000 mg/L and 100 mg/L. The appropriate amounts of each stock solution were added to separate Petri dishes give the following final concentrations (after the addition of 20 mL molten agar): 128, 64, 32, 16, 8, 4, 2, 1, 0.5, 0.25, 0.12, 0.06, 0.03, 0.015 mg/L.
(§6) Volumes (20 mL) of cooled molten IST agar (oxoid) was added to each Petri dish and mixed by swirling.
(§7) After drying, the plates were stored at 4° C. and protected from light. Plates were used on the day of preparation.
(§8) The test organisms were grown overnight in 5 mL IST broth. Using a dilution in 0.9% saline of 1:500 for Gram-negative organisms and 1:100 for Gram-positive organisms, the appropriate agar plates were inoculated using a multipoint inoculator.
(§9) Plates were incubated at 37° C. in air for 18-20 hours.
(§10) The MIC is the minimum amount of an antibiotic at which there is no visible growth of bacteria. Tiny single colonies or faint hazes were not counted as growth.

[2] = system: Pseudomonas aeruginosa NCTC 10662; experiment: MIC, agar dilution (BSAC guidelines); assay type: cell-based
Procedure: as §1, §2, §3, §4, §5, §6, §7, §8, §9, §10

[3] = system: Staphylococcus epidermidis ATCC 1228; experiment: MIC, agar dilution (BSAC guidelines); assay type: cell-based
Procedure: as §1, §2, §3, §4, §5, §6, §7, §8, §9, §10

[4] = system: Escherichia coli NCTC 10418; experiment: MIC, agar dilution (BSAC guidelines); assay type: cell-based
Procedure: as §1, §2, §3, §4, §5, §6, §7, §8, §9, §10

[5] = system: VISA, strain USA/VISA 5836; experiment: MIC, agar dilution (BSAC guidelines); assay type: cell-based; conditions: Staphylococcus aureus
Procedure: as §1, §2, §3, §4, §5, §6, §7, §8, §9, §10

[6] = system: VISA, strain USA/VISA 5827; experiment: MIC, agar dilution (BSAC guidelines); assay type: cell-based; conditions: Staphylococcus aureus
Procedure: as §1, §2, §3, §4, §5, §6, §7, §8, §9, §10

[7] = system: Enterococcus faecium (VRE) VanR B145344C LFE; experiment: MIC, agar dilution (BSAC guidelines); assay type: cell-based; conditions: E. faecium (VRE) VanR B145344C LFE
Procedure: as §1, §2, §3, §4, §5, §6, §7, §8, §9, §10

[8] = system: Enterococcus faecium (VRE) E15 VanA ATCC 4147; experiment: MIC, agar dilution (BSAC guidelines); assay type: cell-based
Procedure: as §1, §2, §3, §4, §5, §6, §7, §8, §9, §10

[9] = system: Enterococcus faecium (VRE) E19 UAA/522 VanB; experiment: MIC, agar dilution (BSAC guidelines); assay type: cell-based; conditions: E. faecium (VRE) E19 UAA/522 VanB
Procedure: as §1, §2, §3, §4, §5, §6, §7, §8, §9, §10

[10] = system: Enterococcus faecalis (VRE) E8 VanA; experiment: MIC, agar dilution (BSAC guidelines); assay type: cell-based; conditions: E. faecalis (VRE) E8 VanA
Procedure: as §1, §2, §3, §4, §5, §6, §7, §8, §9, §10

[11] = system: Enterococcus gallinarum (VRE) E1 NCTC 12359 VanC1; experiment: MIC, agar dilution (BSAC guidelines); assay type: cell-based
Procedure: as §1, §2, §3, §4, §5, §6, §7, §8, §9, §10

[12] = system: Klebsiella pneumoniae ESBL 700603; experiment: MIC, agar dilution (BSAC guidelines); assay type: cell-based
Procedure: as §1, §2, §3, §4, §5, §6, §7, §8, §9, §10

[13] = system: Enterococcus faecium (VRE) NCTC 7171; experiment: MIC, agar dilution (BSAC guidelines); assay type: cell-based
Procedure: as §1, §2, §3, §4, §5, §6, §7, §8, §9, §10

[14] = system: VISA, strain VISA 3900 UK; experiment: MIC, agar dilution (BSAC guidelines); assay type: cell-based; conditions: Staphylococcus aureus
Procedure: as §1, §2, §3, §4, §5, §6, §7, §8, §9, §10

[15] = in vivo; cited from earlier work
[16] = system: clinical MRSA and VISA strains; experiment: MICs for clinical MRSA and VISA strains; assay type: cell-based; conditions: Staphylococcus aureus; range over strains; read-out: MICs for the clinical MRSA and VISA strains tested
Procedure: as §1, §5
The test organisms were grown overnight in 5 mL IST broth. Using a dilution in 0.9% saline of 1:500 for Gram-negative organisms and 1:100 for Gram-positive organisms, the appropriate agar plates were inoculated using a multipoint inoculator. […]
as §10

[17] = system: Gram-negative organisms; experiment: Growth inhibition, summary of MIC testing; assay type: cell-based; conditions: summary in words
Procedure: as §1, §5, §8, §9, §10

[18] = system: strains of Staphylococci and Enterococci with reduced susceptibility to vancomycin; experiment: Growth inhibition, summary of MIC testing; assay type: cell-based; conditions: summary in words
Procedure: as §1, §5, §8, §9, §10

[19] = replicate 1, read-out: Minimum inhibitory concentration (MIC)
[20] = replicate 2, read-out: Minimum inhibitory concentration (MIC)
[21] = replicate 3, read-out: Minimum inhibitory concentration (MIC)

## Clc1ccc(COC(Cn2ccnc2)c2ccc(Cl)cc2Cl)c(Cl)c1 (stereo not shown) [Miconazole, 1-[2-(2,4-dichlorophenyl)-2-[(2,4-dichlorophenyl)methoxy]ethyl]-1H-imidazole]
[1]; ATCC19606, Acinetobacter Baumannii ATCC 19606, replicate 1, read-out: Minimum inhibitory concentration (MIC)
  MIC: > 10 µg/mL
[1]; ATCC19606, Acinetobacter Baumannii ATCC 19606, replicate 2, read-out: Minimum inhibitory concentration (MIC)
  MIC: > 6 µg/mL
[1]; ATCC19606, Acinetobacter Baumannii ATCC 19606, replicate 3, read-out: Minimum inhibitory concentration (MIC)
  MIC: > 6 µg/mL
[2]; NCTC10662, P. aeruginosa NCTC 10662, replicate 1, read-out: Minimum inhibitory concentration (MIC)
  MIC: > 10 µg/mL
[2]; NCTC10662, P. aeruginosa NCTC 10662, replicate 2, read-out: Minimum inhibitory concentration (MIC)
  MIC: > 6 µg/mL
[2]; NCTC10662, P. aeruginosa NCTC 10662, replicate 3, read-out: Minimum inhibitory concentration (MIC)
  MIC: > 6 µg/mL
[3]; ATCC1228, S. epidermidis ATCC 1228, replicate 1, read-out: Minimum inhibitory concentration (MIC)
  MIC: 2.5 µg/mL (≈ 6.01 µM)
[3]; ATCC1228, S. epidermidis ATCC 1228, replicate 2, read-out: Minimum inhibitory concentration (MIC)
  MIC: 2 µg/mL (≈ 4.81 µM)
[3]; ATCC1228, S. epidermidis ATCC 1228, replicate 3, read-out: Minimum inhibitory concentration (MIC)
  MIC: 2 µg/mL (≈ 4.81 µM)
[4]; NCTC10418, E. coli NCTC 10418, replicate 1, read-out: Minimum inhibitory concentration (MIC)
  MIC: > 10 µg/mL
[4]; NCTC10418, E. coli NCTC 10418, replicate 2, read-out: Minimum inhibitory concentration (MIC)
  MIC: > 6 µg/mL
[4]; NCTC10418, E. coli NCTC 10418, replicate 3, read-out: Minimum inhibitory concentration (MIC)
  MIC: > 6 µg/mL
[5]; [19]
  MIC: 1 µg/mL (≈ 2.4 µM)
[5]; [20]
  MIC: 2.5 µg/mL (≈ 6.01 µM)
[5]; [21]
  MIC: 2.5 µg/mL (≈ 6.01 µM)
[6]; [19]
  MIC: 1 µg/mL (≈ 2.4 µM)
[6]; [20]
  MIC: 2 µg/mL (≈ 4.81 µM)
[6]; [21]
  MIC: 1 µg/mL (≈ 2.4 µM)
[7]; [19]
  MIC: 2.5 µg/mL (≈ 6.01 µM)
[7]; [20]
  MIC: 3 µg/mL (≈ 7.21 µM)
[7]; [21]
  MIC: 2.5 µg/mL (≈ 6.01 µM)
[8]; E. faecium (VRE) E15 VanA ATCC 4147, replicate 1, read-out: Minimum inhibitory concentration (MIC)
  MIC: 1.5 µg/mL (≈ 3.6 µM)
[8]; E. faecium (VRE) E15 VanA ATCC 4147, replicate 2, read-out: Minimum inhibitory concentration (MIC)
  MIC: 3 µg/mL (≈ 7.21 µM)
[8]; E. faecium (VRE) E15 VanA ATCC 4147, replicate 3, read-out: Minimum inhibitory concentration (MIC)
  MIC: 3 µg/mL (≈ 7.21 µM)
[9]; [19]
  MIC: 1 µg/mL (≈ 2.4 µM)
[9]; [20]
  MIC: 2.5 µg/mL (≈ 6.01 µM)
[9]; [21]
  MIC: 2.5 µg/mL (≈ 6.01 µM)
[10]; [19]
  MIC: 5 µg/mL (≈ 12 µM)
[10]; [20]
  MIC: > 6 µg/mL
[10]; [21]
  MIC: > 6 µg/mL
[11]; E. gallinarum (VRE) E1 NCTC 12359 VanC1, replicate 1, read-out: Minimum inhibitory concentration (MIC)
  MIC: 2 µg/mL (≈ 4.81 µM)
[11]; E. gallinarum (VRE) E1 NCTC 12359 VanC1, replicate 2, read-out: Minimum inhibitory concentration (MIC)
  MIC: 3 µg/mL (≈ 7.21 µM)
[11]; E. gallinarum (VRE) E1 NCTC 12359 VanC1, replicate 3, read-out: Minimum inhibitory concentration (MIC)
  MIC: 3.5 µg/mL (≈ 8.41 µM)
[12]; ESBL700603, K. pneumoniae ESBL 700603, replicate 1, read-out: Minimum inhibitory concentration (MIC)
  MIC: > 10 µg/mL
[12]; ESBL700603, K. pneumoniae ESBL 700603, replicate 2, read-out: Minimum inhibitory concentration (MIC)
  MIC: > 6 µg/mL
[12]; ESBL700603, K. pneumoniae ESBL 700603, replicate 3, read-out: Minimum inhibitory concentration (MIC)
  MIC: > 6 µg/mL
[13]; E. faecium (VRE) NCTC 7171, replicate 1, read-out: Minimum inhibitory concentration (MIC)
  MIC: 3.5 µg/mL (≈ 8.41 µM)
[13]; E. faecium (VRE) NCTC 7171, replicate 2, read-out: Minimum inhibitory concentration (MIC)
  MIC: 6 µg/mL (≈ 14.4 µM)
[13]; E. faecium (VRE) NCTC 7171, replicate 3, read-out: Minimum inhibitory concentration (MIC)
  MIC: 5.5 µg/mL (≈ 13.2 µM)
[14]; [19]
  MIC: 1 µg/mL (≈ 2.4 µM)
[14]; [20]
  MIC: 1.5 µg/mL (≈ 3.6 µM)
[14]; [21]
  MIC: 2 µg/mL (≈ 4.81 µM)
[15]
  biological half life, first phase of triphasic elimination: 0.4 hours
  biological half life, second phase of triphasic elimination: 2.1 hours
  biological half life, third phase of triphasic elimination: 24.1 hours
[16]
  MIC: 0.25 to 2 µg/mL (≈ 0.601 to 4.81 µM)
[17]
  activity against Gram-negative organisms: no significant activity
[18]
  activity against strains of Staphylococci and Enterococci with reduced susceptibility to vancomycin: good activity
[18]; listed as miconazole
  activity against strains of Staphylococci and Enterococci with reduced susceptibility to vancomycin: capable of inhibiting the growth
